What was measured:
HEK293 [1] = assay: cytotoxicity IC50 (ATP content, uninfected cells); higher = less cytotoxic; settings: infection: none
HEK293 [2] = assay: maximal inhibition of ZIKV NS1 production (% inhibition); higher = stronger antiviral effect
Experimental: (§1)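 HEK293 cells in 1536-well plates were pre-treated with compound for 1 h, infected with ZIKV (MOI 1) for 24 h, and NS1 antigen (intra- plus extracellular) was measured by TR-FRET. Confirmation used 11-point 1:3 dilutions, and IC50 and maximal inhibition were fitted in GraphPad Prism.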

HEK293 [3] = assay: IC50 for inhibition of ZIKV NS1 production
Experimental: as §1

Compound | cytotoxicity IC50 (HEK293 [1]) [µM] | maximal inhibition (HEK293 [2]) | IC50 (HEK293 [3]) [µM]
CCc1cnn2c(NCc3ccc[n+]([O-])c3)cc(N3CCCC[C@H]3CCO)nc12 | > 100 | 90 | 
Cc1ncc(-c2ccnc(Nc3ccc(S(C)(=O)=O)cc3)n2)n1C(C)C | > 100 | 99 | 9.2
CO/C1=C\C(C)=C\[C@@H](C)[C@@H](O)[C@@H](C)C/C(C)=C/C=C/[C@H](OC)[C@@H]([C@@H](C)[C@@H](O)[C@H](C)[C@@]2(O)C[C@@H](O)[C@H](C)[C@@H](C(C)C)O2)OC1=O | 80 | 101 | 5.3
CN(C)c1ccc(C(=C2C=CC(=[N+](C)C)C=C2)c2ccccc2)cc1 | 1.8 | 102 | 1.6
COc1cc(OC)c(/C=C/S(=O)(=O)Cc2ccc(OC)c(NCC(=O)O)c2)c(OC)c1 | > 100 | 61 | 1.4
Cn1c(=O)n(-c2ccc(C(C)(C)C#N)cc2)c2c3cc(-c4cnc5ccccc5c4)ccc3ncc21 | 0.53 | 82 | 3.2
CC[C@]1(O)C[C@H]2CN(CCc3c([nH]c4ccccc34)[C@@](C(=O)OC)(c3cc4c(cc3OC)N(C=O)[C@H]3[C@@](O)(C(=O)OC)[C@H](OC(C)=O)[C@]5(CC)C=CCN6CC[C@]43[C@@H]65)C2)C1 | > 100 | 55 | 0.16
C[C@H](NCc1ccc2c(c1)nc(NC(=O)c1ccc(-c3cn[nH]c3)s1)n2CCc1ccccc1)C(C)(C)C | > 100 | 98 | 17
COc1c(C)c2c(c(O)c1C/C=C(\C)CCC(=O)OCCN1CCOCC1)C(=O)OC2 | > 100 | 105 | 0.53
Cc1c2oc3c(C)ccc(C(=O)N[C@@H]4C(=O)N[C@H](C(C)C)C(=O)N5CCC[C@H]5C(=O)N(C)CC(=O)N(C)[C@@H](C(C)C)C(=O)O[C@@H]4C)c3nc-2c(C(=O)N[C@@H]2C(=O)N[C@H](C(C)C)C(=O)N3CCC[C@H]3C(=O)N(C)CC(=O)N(C)[C@@H](C(C)C)C(=O)O[C@@H]2C)c(N)c1=O | > 100 | 99 | 0.35
OC[C@H](Cc1ccccc1)Nc1nc(Oc2ccc3c(c2)CCC3)nc2c1ncn2Cc1ccc(-c2ccccc2)cc1 | 90 | 100 | 7.8
COc1cc2nc(-c3cc(F)ccc3O)nc(N[C@@H]3CNC[C@H]3C(C)(C)O)c2cc1OC | 45 | 98 | 12
CCC[C@@H](C=O)NC(=O)[C@H](CC(C)C)NC(=O)[C@H](CC(C)C)NC(=O)OCc1ccccc1 | 2.4 | 94 | 1.6
O=C(Nc1ccncc1)C(=O)c1cn(Cc2ccc(Cl)cc2)c2ccccc12 | 70 | 39 | 1.3
O=c1[nH]nc(Sc2ncc([N+](=O)[O-])s2)n1-c1ccc2c(c1)OCCO2 | 12 | 97 | 8
CC(C)(O)Cn1c(NC(=O)c2ccc(-c3cn[nH]c3)s2)nc2cc(CN3CCOCC3)ccc21 | > 100 | 103 | 8.3
Cc1nc(N)nc(N)c1-c1ccc(Cl)c(Cl)c1 | 1.5 | 102 | 2
N=C(N)NN=C(/C=C/c1ccc([N+](=O)[O-])o1)/C=C/c1ccc([N+](=O)[O-])o1 | 3.9 | 102 | 3.9
CCCCc1ccc2[nH]c(NC(=O)OC)nc2c1 | 3 | 80 | 0.69
Cc1c(O)cccc1C(=O)N[C@@H](CSc1ccccc1)[C@H](O)CN1C[C@H]2CCCC[C@H]2C[C@H]1C(=O)NC(C)(C)C | > 100 | 84 | 24
O=c1[nH]c2ccc(Cl)cc2c(N[C@@H]2CN3CCC2CC3)c1-c1nc2ccccc2[nH]1 | 3.3 | 100 | 0.41
CCC(=O)N1CCN(c2ccc(-n3c(=O)ccc4cnc5ccc(-c6cnc7ccccc7c6)cc5c43)cc2C(F)(F)F)CC1 | 1.5 |  | 
CC(=O)Nc1ccc([C@H](C)C(=O)Nc2ncc(C(C)C)s2)cc1 | > 100 | 90 | 7.4
O=C(Nc1cc(C(F)(F)F)cc(C(F)(F)F)c1)c1cc(Cl)ccc1O | 0.71 | 99 | 3.9
c1ccc2c(CCNc3ccc(Nc4ccncc4)cc3)c[nH]c2c1 | > 100 | 51 | 23
COc1cc([C@@H]2c3cc4c(cc3[C@@H](O[C@@H]3O[C@@H]5CO[C@@H](c6cccs6)O[C@H]5[C@H](O)[C@H]3O)[C@H]3COC(=O)[C@H]23)OCO4)cc(OC)c1O | > 100 | 100 | 1.2

Compound | cytotoxicity IC50 (HEK293 [1]) [µM] | maximal inhibition (HEK293 [2]) | IC50 (HEK293 [3]) [µM]
O=C1NC(=O)[C@@H](c2cn3c4c(cccc24)CCC3)[C@@H]1c1c[nH]c2ccccc12 | 1.6 | 86 | 18
CCN1/C(=C/C=C/c2sc3ccccc3[n+]2CC)Sc2ccccc21 | 1.2 | 71 | 50
COc1cccc2c1C(=O)c1c(O)c3c(c(O)c1C2=O)C[C@@](O)(C(C)=O)C[C@@H]3O[C@H]1C[C@H](N)[C@H](O)[C@H](C)O1 | > 100 | 66 | 0.54
FC(F)c1nc2ccccc2n1-c1nc(N2CCOCC2)nc(N2CCOCC2)n1 | 60 | 85 | 3.9
Cc1c(N)nc([C@H](CC(N)=O)NC[C@@H](N)C(N)=O)nc1C(=O)N[C@H](C(=O)N[C@@H](C)[C@H](O)[C@@H](C)C(=O)N[C@@H](C(=O)NCCc1nc(-c2nc(C(=O)NCCC[S+](C)C)cs2)cs1)[C@@H](C)O)C(O[C@H]1O[C@H](CO)[C@H](O)[C@@H](O)[C@H]1O[C@H]1O[C@H](CO)[C@@H](O)[C@H](OC(N)=O)[C@@H]1O)c1cnc[nH]1 (some centres not stated) | > 100 | 103 | 6.3
CN1CCN(Cc2ccc(NC(=O)Nc3ccc(Oc4cc(NC(=O)C5CC5)ncn4)cc3)cc2C(F)(F)F)CC1 | > 100 | 104 | 2.4
Oc1cccc(-c2nc(N3CCOCC3)c3oc4ncccc4c3n2)c1 | 0.94 | 92 | 1.6
c1ccc2c(-c3cnn4cc(-c5ccc(N6CCNCC6)cc5)cnc34)ccnc2c1 | 80 | 106 | 6.1
COC(=O)[C@]12CCC(C)(C)C[C@H]1[C@H]1C(=O)C=C3[C@@]4(C)C=C(C#N)C(=O)C(C)(C)[C@@H]4CC[C@@]3(C)[C@]1(C)CC2 | 2.7 | 100 | 0.28
O=C(NC1CCNCC1)c1n[nH]cc1NC(=O)c1c(Cl)cccc1Cl | 22 | 91 | 3.1
O=C(O)c1ccc2cc(-c3ccc(O)c(C45CC6CC(CC(C6)C4)C5)c3)ccc2c1 | 45 | 97 | 1.7
CC(C)[C@]12O[C@H]1[C@@H]1O[C@]13[C@]1(O[C@H]1C[C@H]1C4=C(CC[C@@]13C)C(=O)OC4)[C@@H]2O | > 100 | 73 | 0.47
CC[C@H](CC#N)OC(=O)N[C@@H](C)c1cccc(NC(=O)Nc2ccc(-c3cnco3)c(OC)c2)c1 | 20 | 99 | 0.14
COC(=O)Nc1nc2cc(C(=O)c3ccccc3)ccc2[nH]1 | > 100 | 69 | 1
O=c1[nH]c(=O)n([C@H]2C[C@H](O)[C@@H](CO)O2)cc1F | 60 | 98 | 0.92
CCC[C@H](Nc1nc(-c2ccc(NC(=O)NCC)c(OC)c2)ncc1C)c1cccnc1 | > 100 | 72 | 0.17
O=C(Nc1ncc(-c2cc(C(F)F)nn2-c2c(Cl)cccc2Cl)s1)C1CC1 | > 100 | 92 | 1.2
Cc1cc(C2CCCCC2)n(O)c(=O)c1 | 20 | 100 | 14
C[C@H]1O[C@@H](O[C@H]2[C@@H](O)C[C@H](O[C@H]3[C@@H](O)C[C@H](O[C@H]4CC[C@@]5(C)[C@H](CC[C@@H]6[C@@H]5C[C@@H](O)[C@]5(C)[C@@H](C7=CC(=O)OC7)CC[C@]65O)C4)O[C@@H]3C)O[C@@H]2C)C[C@H](O)[C@@H]1O | 60 | 104 | 0.15
C=C1C(=O)[C@]23[C@H](O)[C@H]1CC[C@H]2[C@@]12CO[C@]3(O)[C@@H](O)[C@@H]1C(C)(C)CC[C@@H]2O | 40 | 108 | 17
O=C1NC(=O)/C(=C/c2ccc3nccc(-c4ccncc4)c3c2)S1 | 1.4 | 82 | 1.9
CO[C@H]1[C@H](O)[C@@H](O)[C@H](n2c3c(Cl)cccc3c3c4c(c5c6cccc(Cl)c6[nH]c5c32)C(=O)NC4=O)O[C@@H]1CO | 60 | 90 | 2.1
c1cnc2c(c1)ccc1cccnc12 | 3.6 | 99 | 14
CC[C@@H]1C(=O)N(C)c2cnc(Nc3ccc(C(=O)NC4CCN(C)CC4)cc3OC)nc2N1C1CCCC1 | > 100 |  | 
CC(C)(C)CC(C)(C)c1ccc(OCCOCC[N+](C)(C)Cc2ccccc2)cc1 |  | 103 | 9

— the supplement of paper PMC8498969
